One assay relates to T cells. Particulars: cited from earlier work.
The subject of assay [1] is Non-obese diabetic (NOD) mouse. The assay is described as follows: Treatment of NOD mice, development of diabetes. Conditions: 10 μg injected three times a week. The class given is in vivo. The procedure: NOD mice are obtained from Jackson Laboratories, Bar Harbor, Me., and are used as an experimental system (Shi et al. (2001) Proc. Natl. Acad. Sci. USA 98: 6777-6782). These mice begin to develop diabetes at about 13-15 weeks and data are obtained after about 30 weeks to obtain data, such as a frequency of symptoms for comparison of treated and untreated groups of mice. NOD mice were treated herein with Copaxone®, and no difference was found between the untreated animals and animals treated with Copaxone®. In the experiment, 10 μg of Copaxone® was injected into mice three times a week (equivalent to the human dose on a weight ratio basis. A higher dose, 33 μg Copaxone®/mouse three times a week, is also employed. These experiments test the hypothesis that Copaxone® would be ineffective.

For the substance Glatiramer acetate, in the assay on T cells (HLA-DR restricted), the “proportion of an individual's T cells activated” value is on record as 15-20%. Also, the “T cell response generated through HLA-DQ molecules” value in the assay on T cells was “little response”. In addition, the “difference between untreated and treated NOD mice (diabetes)” value in assay [1] is given as “no difference”.

The values are drawn from patent publication US20080194462A1, “Methods and Compositions for Treatment of Autoimmune Diseases” (Peptimmune, Inc., priority 2004, published 2008).
